Reference: patent publication EP0728012B1, “NOVEL GnRH ANALOGUES WITH ANTITUMOUR EFFECTS AND PHARMACEUTICAL COMPOSITIONS THEREOF” (Lovas, Sandor, priority 1994, dated 1996)
Non-standard residues stand in square brackets, D forms with d. Residues, ends and D or L forms follow the SMILES beside them. dPhe(4-Cl) = N[C@H](Cc1ccc(Cl)cc1)C(=O)O

Assays:
Ishikawa [1] = assay: Inhibition of colony formation by GnRH analogues (dose-survival, Example 48); format: cell-based, human; conditions: 50 µM
Method: (§1) The examination gives accurate information about the cell-damaging effect of the substance tested as a function of varying doses. The treatment was carried out once; the colonies formed from the surviving cells were counted after 8 - 12 days. […] A part of the arrested cells again entered the cycle, another part of them might be destroyed (apoptosis). […] In the case of a dose-response investigation, colonies containing less than 15 cells were not counted. 300 cells were put into each Petri dishes of 3.5 cm in diameter. The treatment was once carried out 24 hours after setting, then the colonies formed were counted after 8 - 12 days. The cells were treated once after 24 hours with 1-50 µM of various GnRH analogues of Examples above or with 1 - 50 µM of GnRH-III, respectively. The percentages of inhibition obtained on MCF-7, MDA-MB-231, PC3 and Ishikawa cells, respectively, together with the dose of the active agent used are shown in Table VIII.

MDA-MB-231 [2] = assay: as above; format: cell-based, human
Method: as §1

MCF-7 [3] = assay: as above; format: cell-based, human; conditions: treated once
Method: as §1

PC3 [4] = assay: as above; format: cell-based, human; conditions: for % Inhibition of the colony formation: 50 µM; for inhibition of colony formation: within the dose range used (1-50 µM)
Method: as §1

human tumour cell lines [5] = assay: Inhibition of colony formation (Example 48), comparison with the control D-Trp^6-hGnRH; format: cell-based; conditions: data of Table VIII
Method: as §1
In these studies the D-Trp^6-hGnRH analogue (Sigma Co.) commonly used in the tumour therapy was employed as control.

[6] = test system: MDA-MB-231 human mammary carcinoma cell line; assay: Inhibition of colony formation (dose-survival relation, Example 18); format: cell-based
Method: (§2) In the case of cytostatics the cell-damaging effect is not cell-specific. […] One part of the arrested cells again go into the cycle, the other part may perish (apoptosis). […] The investigations were carried out on MCF-7 and MDA-MB-231 human mammary carcinoma cell lines, PC3 human prostate 15 carcinoma cell line and Ishikawa human endometrium carcinoma cell line. Three hundred cells were set into Petri dishes of 3.5 cm in diameter each. The treatment was carried out once, 24 hours following the explantation, then the colonies formed were counted after 9 to 12 days.

[7] = test system: Ishikawa human endometrium carcinoma cell line; assay: as above; format: cell-based
Method: as §2

[8] = test system: MCF-7 human mammary carcinoma cell line; assay: as above; format: cell-based; conditions: for % Inhibition of colony formation: treated once
Method: as §2

[9] = test system: PC3 human prostate carcinoma cell line; assay: as above; format: cell-based
Method: as §2

human tumour cell lines [10] = format: cell-based; conditions: 30 µM
Method: (§3) After being treated with trypsin, 300.000 each of MCF-7, MDA-MB-231, PC3 or Ishikawa cells, respectively, were passed into Petri dishes of 10 cm in diameter. Starting from the day following the setting, the cells were treated with 1-50 µM of the GnRH analogue in the exponential growth phase. During the experiment lasting for 5 days, the cells were treated in every two days with the peptide hormone dissolved in the nutrient medium, then the cell count was determined on the sixth day.

MDA-MB-231 [11] = format: cell-based, human; conditions: MDA-MB-231 ER-negative; after 6 days' treatment; dose not stated
Method: as §3

MCF-7 [12] = format: cell-based, human; conditions: MCF-7 ER-positive; after 6 days' treatment; dose not stated
Method: as §3

PC3 [13] = assay: In vitro inhibition of cell proliferation (Example 19); format: cell-based, human
Method: (§4) The procedure of treatment was as follows. After trypsinization the cells, 400,000 cells of MCF-7, MDA-MB-231 human mammary carcinoma, PC3 human prostate carcinoma or Ishikawa human endometrium tumour each were passed into Petri dishes of 10 cm in diameter. Starting from the day following transfer, the cells were treated with the substances to be tested in solution prepared with the nutrient medium during the exponential growth phase. The cultures were treated with 1 to 50 µM (calculated for the total volume of the culture) or MI-1544 GnRH antagonist, MI-1892 chicken GnRH antagonist or SJ-1004 GnRH antagonist analogues as well as synthetic lamprey GnRH-III hormone every two days and the cell count was determined on the 7th day.

Ishikawa [14] = test system: Ishikawa
Method: as §4, with “antagonist analogues as well as synthetic lamprey GnRH-III hormone every two days and the cell count was determined” left out

MDA-MB-231 [15] = conditions: MDA-MB-231; 30 µM active substance; conjugate, treated once; listed as 8. P-GFLG-1004
Method: (§5) The procedure of treatment was as follows. After trypsinization the cells, 400,000 cells of MCF-7, MDA-MB-231 human mammary carcinoma, PC3 human prostate carcinoma or Ishikawa human endometrium tumour each were passed into Petri dishes of 10 cm in diameter. Starting from the day following transfer, the cells were treated with the substances to be tested in solution prepared with the nutrient medium during the exponential growth phase. […]

MCF-7 [16] = conditions: MCF-7; 30 µM active substance; conjugate, treated once; cell count on 7th day; listed as 8. P-GFLG-1004
Method: as §5

MXT mouse mammary tumour = assay: In vivo antitumour effect on mice bearing MXT mouse mammary tumour; parameters: species or system CBA/Ca mice
Method: The MXT mouse mammary carcinoma contains ER and PgR proteins; furthermore, it contains also GnRH receptors; therefore, this in vivo tumour model is suitable for studying both the direct and indirect effects. The treatment of mice bearing MXT mammary tumour was commenced on the day following transplantation. […] Table VI The animals were daily treated in s.c. route starting from the day following transplantation of MXT mouse mammary tumour. […] MI-1544: 75 µg/day/animal; MI-1892: 75 µg/day/animal.

[17] = 30 µM active substance, conjugate, treated once
[18] = 30 µM, peptide alone, two treatments on days 2 and 4
[19] = MXT mouse mammary tumour, Treatment weeks: 13, 1x75 µg daily s.c.
[20] = MXT mouse mammary tumour, Treatment weeks: 20, 1x75 µg daily s.c.

NCCCC[C@H](NC(=O)[C@H](Cc1c[nH]c2ccccc12)NC(=O)[C@H](Cc1c[nH]cn1)NC(=O)[C@@H]1CCC(=O)N1)C(=O)N[C@@H](Cc1c[nH]cn1)C(=O)N[C@@H](CC(=O)O)C(=O)N[C@@H](Cc1c[nH]c2ccccc12)C(=O)N[C@@H](CCCCN)C(=O)N1CCC[C@H]1C(=O)NCC(N)=O [6. Lys^4-GnRH-III, Lys^4-GnRH-III]
% Inhibition of the colony formation (Ishikawa [1]): 21% | % Inhibition of the colony formation (MDA-MB-231 [2]; 10 µM): 18% | % Inhibition of the colony formation (MDA-MB-231 [2]; 50 µM): 35% | % Inhibition of the colony formation (MDA-MB-231 [2]; 50 µM, listed as Example 31, 50 µM): 35-42% | % Inhibition of the colony formation (MCF-7 [3]; 10 µM): 15% | % Inhibition of the colony formation (MCF-7 [3]; 50 µM): 40% | % Inhibition of the colony formation (PC3 [4]): 0% | inhibition of colony formation (PC3 [4]): did not influence | inhibitory effect compared with the control D-Trp^6-hGnRH (human tumour cell lines [5]): exceeded the inhibitory effect of control | inhibition of colony formation ([6]; concentration not given): 35% | inhibition of colony formation ([7]; concentration not given): 21% | inhibition of colony formation ([8]; concentration not given): 40% | inhibition of colony formation ([9]; concentration not given): did not show any inhibition | proliferation-inhibiting effect (human tumour cell lines [10]): 27-31%

[D-Ser(tBu)]^6,desGly^10-hGnRH(1-9)EA [Buserelin]
inhibition of cell proliferation (MDA-MB-231 [11]): 25-30% | inhibition (change in the cell count) (MCF-7 [12]): 5-15%

D-Phe^2,D-Trp^3,{D-Lys[n-poly(N-vinylpyrrolidone-co-maleic acid)-Gly-Phe-Leu-Gly]}^6,-GnRH [P-GFLG-1004]
% Inhibition of the colony formation (PC3 [4]): 31% | % Inhibition of cell division (proliferation) (PC3 [13]; [17]): 35% | % Inhibition of colony formation ([6]; 10 µM): 62% | % Inhibition of colony formation ([6]; 50 µM, listed as 8. P-GFLG-1004, 50 µM): 92% | % Inhibition of colony formation ([7]; 10 µM): 3% | % Inhibition of colony formation ([7]; 50 µM): 46% | % Inhibition of colony formation ([8]; 10 µM (active substance)): 75% | % Inhibition of colony formation ([8]; 50 µM (active substance), listed as 8. P-GFLG-1004, 50 µM): 95% | % Inhibition of colony formation ([9]; 30 µM): 100% | % Inhibition of colony formation ([9]; 50 µM): 100% | % Inhibition of cell division (proliferation) (Ishikawa [14]; [17]): 20% | % Inhibition of cell division (proliferation) (MDA-MB-231 [15]): 68% | % Inhibition of cell division (proliferation) (MCF-7 [16]): 63%

CC(=O)NCCCC[C@H](NC(=O)[C@H](Cc1c[nH]c2ccccc12)NC(=O)[C@H](Cc1c[nH]cn1)NC(=O)[C@@H]1CCC(=O)N1)C(=O)N[C@@H](Cc1c[nH]cn1)C(=O)N[C@@H](CC(=O)O)C(=O)N[C@@H](Cc1c[nH]c2ccccc12)C(=O)N[C@@H](CCCCN)C(=O)N1CCC[C@H]1C(=O)NCC(N)=O [7. [Lys(ε-AC)]^4 GnRH-III, [Lys(î-Ac)]^4 -GnRH-III]
% Inhibition of the colony formation (Ishikawa [1]): 14% | % Inhibition of the colony formation (MDA-MB-231 [2]; 10 µM): 31% | % Inhibition of the colony formation (MDA-MB-231 [2]; 50 µM): 42% | % Inhibition of the colony formation (MDA-MB-231 [2]; 50 µM, listed as Example 32, 50 µM): 35-42% | % Inhibition of the colony formation (MCF-7 [3]; 10 µM): 40% | % Inhibition of the colony formation (MCF-7 [3]; 50 µM): 52% | % Inhibition of the colony formation (PC3 [4]): 0% | inhibition of colony formation (PC3 [4]): did not influence | inhibitory effect compared with the control D-Trp^6-hGnRH (human tumour cell lines [5]): exceeded the inhibitory effect of control | proliferation-inhibiting effect (human tumour cell lines [10]): 27-31%

CC(=O)N[C@H](Cc1c[nH]c2ccccc12)C(=O)N[C@H](Cc1ccc(Cl)cc1)C(=O)N[C@H](Cc1c[nH]c2ccccc12)C(=O)N[C@@H](CO)C(=O)N[C@@H](Cc1ccc(O)cc1)C(=O)N[C@H](CCCCN)C(=O)N[C@@H](CC(C)C)C(=O)N[C@@H](CCCNC(=N)N)C(=O)N1CCC[C@H]1C(=O)N[C@H](C)C(N)=O [MI-1544, Ac-D-Trp^1,3,D-Cpa^2,D-Lys^6,D-Ala^10-hGnRH, reference compound] (Ac-[dW][dPhe(4-Cl)][dW]SY[dK]LRP[dA]-NH2)
inhibition of proliferation (PC3 [13]; [18]): 24% | % Inhibition of colony formation ([6]; 50 µM): 20% | % Inhibition of colony formation ([7]; 50 µM): 5% | % Inhibition of colony formation ([8]; 50 µM (active substance)): 45% | % Inhibition of colony formation ([9]; 50 µM): 20% | Inhibition % (MXT mouse mammary tumour; [19]): 46% | Tumour volume as control (%) (MXT mouse mammary tumour; [19]): 54% | Inhibition % (MXT mouse mammary tumour; [20]): 46% | Tumour volume as control (%) (MXT mouse mammary tumour; [20]): 54% | Tumour volume (cm^3) (MXT mouse mammary tumour; day 9, 75 µg/day/animal s.c.): 0.44 cm^3 | Tumour volume as control (%) (MXT mouse mammary tumour; day 9, 75 µg/day/animal s.c.): 63% | Tumour volume (cm^3) (MXT mouse mammary tumour; day 11, 75 µg/day/animal s.c.): 1.03 cm^3 | Tumour volume as control (%) (MXT mouse mammary tumour; day 11, 75 µg/day/animal s.c.): 57% | Tumour volume (cm^3) (MXT mouse mammary tumour; day 13, 75 µg/day/animal s.c.): 1.74 cm^3 | Tumour volume as control (%) (MXT mouse mammary tumour; day 13, 75 µg/day/animal s.c.): 54% | Tumour volume (cm^3) (MXT mouse mammary tumour; day 17, 75 µg/day/animal s.c.): 2.63 cm^3 | Tumour volume as control (%) (MXT mouse mammary tumour; day 17, 75 µg/day/animal s.c.): 51% | Tumour volume (cm^3) (MXT mouse mammary tumour; day 18, 75 µg/day/animal s.c.): 3.94 cm^3 | Tumour volume as control (%) (MXT mouse mammary tumour; day 18, 75 µg/day/animal s.c.): 53% | Tumour volume (cm^3) (MXT mouse mammary tumour; day 20, 75 µg/day/animal s.c.): 5.02 cm^3 | Tumour volume as control (%) (MXT mouse mammary tumour; day 20, 75 µg/day/animal s.c.): 54% | Tumour volume (cm^3) (MXT mouse mammary tumour; day 24, 75 µg/day/animal s.c.): 6.08 cm^3 | Tumour volume as control (%) (MXT mouse mammary tumour; day 24, 75 µg/day/animal s.c.): 48% | Tumour volume (cm^3) (MXT mouse mammary tumour; day 26, 75 µg/day/animal s.c.): 8.42 cm^3 | Tumour volume as control (%) (MXT mouse mammary tumour; day 26, 75 µg/day/animal s.c.): 60% | inhibition of proliferation (Ishikawa [14]; [18]): 8%

D-Phe^6-GnRH(1-9)-ethylamide [Ovurelin]
inhibition of cell proliferation (MDA-MB-231 [11]): 25-30% | inhibition (change in the cell count) (MCF-7 [12]): 5-15%
